Measurements as given in patent EP0414533A1, “Use of iodopropargyl esters of alpha-amino acid derivatives as antimicrobial agents” (ROHM AND HAAS COMPANY, priority 1989, dated 1991).
Read-outs that look alike come from different tables or passages of the source.

Legend:
Format in all cases: cell-based
ALT = test: In-vitro plant fungicide test; conditions: Table IVb, read-out: % Control at (ppm) indicated ALT
Piricularia oryzae (PIR) = test: microbe, parasite or virus in culture
[1] = test system: Xanthomonas campestris (XAN); test: In-vitro plant fungicide test; design: inhibition of growth: concentration or dose not given beside the values; conditions: Xanthomonas campestris
Septoria nodorum (SEP) = test: In-vitro plant fungicide test; conditions: Parastagonospora nodorum
CER = test: In-vitro plant fungicide test; conditions: Table IVb, read-out: % Control at (ppm) indicated CER
Rhizoctonia solani (RHI) = test: In-vitro plant fungicide test; conditions: Rhizoctonia solani
[2] = test system: Phytophthora capsici (PHY); test: In-vitro plant fungicide test; conditions: Phytophthora capsici
MON = test: In-vitro plant fungicide test; conditions: Table IVb, read-out: % Control at (ppm) indicated MON
UST = test: In-vitro plant fungicide test; conditions: Table IVb, read-out: % Control at (ppm) indicated UST
Botrytis cinerea (BOC) = test: In-vitro plant fungicide test; conditions: Botrytis cinerea
Pythium ultimum (PYU) = test: In-vitro plant fungicide test; conditions: Globisporangium ultimum
[3] = Table IVb, read-out: % Control at (ppm) indicated XAN

CC(C)(C)OC(=O)NCC(=O)OCC#CI [Compound 1, N-t-butoxycarbonylglycine iodopropargyl ester]
inhibition of growth at 1.5 ppm (ALT; 1.5 ppm): 0%
inhibition of growth at 3 ppm (ALT; 3 ppm): 50%
inhibition of growth at 6 ppm (ALT; 6 ppm): 50%
inhibition of growth at 12 ppm (ALT; 12 ppm): 100%
inhibition of growth at 25 ppm (ALT; 25 ppm): 100%
inhibition of growth at 0.2 ppm (ALT; .2 ppm): 0%
inhibition of growth at 0.4 ppm (ALT; .4 ppm): 0%
inhibition of growth at 0.8 ppm (ALT; .8 ppm): 0%
inhibition of growth at 1.5 ppm (Piricularia oryzae (PIR); 1.5 ppm, read-out: % Control at (ppm) indicated PIR): 50%
inhibition of growth at 6 ppm (Piricularia oryzae (PIR); 6 ppm, read-out: % Control at (ppm) indicated PIR): 100%
inhibition of growth at 25 ppm (Piricularia oryzae (PIR); 25 ppm, read-out: % Control at (ppm) indicated PIR): 100%
inhibition of growth at 0.2 ppm (Piricularia oryzae (PIR); .2 ppm, read-out: % Control at (ppm) indicated PIR): 0%
inhibition of growth at 0.4 ppm (Piricularia oryzae (PIR); .4 ppm, read-out: % Control at (ppm) indicated PIR): 0%
inhibition of growth at 0.8 ppm (Piricularia oryzae (PIR); .8 ppm, read-out: % Control at (ppm) indicated PIR): 0%
inhibition of growth at 25 ppm (Piricularia oryzae (PIR); read-out: % Control at 25 ppm PIR): 100%
inhibition of growth at 1.5 ppm ([1]; 1.5 ppm, Table IVb, read-out: % Control at (ppm) indicated XAN): 0%
inhibition of growth at 3 ppm ([1]; 3 ppm, Table IVb, read-out: % Control at (ppm) indicated XAN): 0%
inhibition of growth at 6 ppm ([1]; 6 ppm, Table IVb, read-out: % Control at (ppm) indicated XAN): 0%
inhibition of growth at 25 ppm ([1]; Table IVa, read-out: % Control at 25 ppm XAN): 0%
inhibition of growth at 25 ppm [1, 3]: 0%
inhibition of growth at 0.2 ppm ([1]; .2 ppm, Table IVb, read-out: % Control at (ppm) indicated XAN): 0%
inhibition of growth at 0.4 ppm ([1]; .4 ppm, Table IVb, read-out: % Control at (ppm) indicated XAN): 0%
inhibition of growth at 0.8 ppm ([1]; .8 ppm, Table IVb, read-out: % Control at (ppm) indicated XAN): 0%
inhibition of growth [1, 3]: 0%
inhibition of growth at 1.5 ppm (Septoria nodorum (SEP); 1.5 ppm, Table IVb, read-out: % Control at (ppm) indicated SEP): 0%
inhibition of growth at 6 ppm (Septoria nodorum (SEP); 6 ppm, Table IVb, read-out: % Control at (ppm) indicated SEP): 100%
inhibition of growth at 25 ppm (Septoria nodorum (SEP); Table IVa, read-out: % Control at 25 ppm SEP): 100%
inhibition of growth at 25 ppm (Septoria nodorum (SEP); Table IVb, read-out: % Control at (ppm) indicated SEP): 100%
inhibition of growth at 0.2 ppm (Septoria nodorum (SEP); .2 ppm, Table IVb, read-out: % Control at (ppm) indicated SEP): 0%
inhibition of growth at 0.4 ppm (Septoria nodorum (SEP); .4 ppm, Table IVb, read-out: % Control at (ppm) indicated SEP): 0%
inhibition of growth at 0.8 ppm (Septoria nodorum (SEP); .8 ppm, Table IVb, read-out: % Control at (ppm) indicated SEP): 0%
inhibition of growth at 1.5 ppm (CER; 1.5 ppm): 0%
inhibition of growth at 6 ppm (CER; 6 ppm): 100%
inhibition of growth at 25 ppm (CER; 25 ppm): 100%
inhibition of growth at 0.2 ppm (CER; .2 ppm): 0%
inhibition of growth at 0.4 ppm (CER; .4 ppm): 0%
inhibition of growth at 0.8 ppm (CER; .8 ppm): 0%
inhibition of growth at 1.5 ppm (Rhizoctonia solani (RHI); 1.5 ppm, Table IVb, read-out: % Control at (ppm) indicated RHI): 100%
inhibition of growth at 6 ppm (Rhizoctonia solani (RHI); 6 ppm, Table IVb, read-out: % Control at (ppm) indicated RHI): 100%
inhibition of growth at 25 ppm (Rhizoctonia solani (RHI); Table IVa, read-out: % Control at 25 ppm RHI): 100%
inhibition of growth at 25 ppm (Rhizoctonia solani (RHI); Table IVb, read-out: % Control at (ppm) indicated RHI): 100%
inhibition of growth at 0.2 ppm (Rhizoctonia solani (RHI); .2 ppm, Table IVb, read-out: % Control at (ppm) indicated RHI): 0%
inhibition of growth at 0.4 ppm (Rhizoctonia solani (RHI); .4 ppm, Table IVb, read-out: % Control at (ppm) indicated RHI): 75%
inhibition of growth at 0.8 ppm (Rhizoctonia solani (RHI); .8 ppm, Table IVb, read-out: % Control at (ppm) indicated RHI): 100%
inhibition of growth at 1.5 ppm ([2]; 1.5 ppm, Table IVb, read-out: % Control at (ppm) indicated PHY): 50%
inhibition of growth at 6 ppm ([2]; 6 ppm, Table IVb, read-out: % Control at (ppm) indicated PHY): 100%
inhibition of growth at 25 ppm ([2]; Table IVa, read-out: % Control at 25 ppm PHY): 100%
inhibition of growth at 25 ppm ([2]; Table IVb, read-out: % Control at (ppm) indicated PHY): 100%
inhibition of growth at 0.2 ppm ([2]; .2 ppm, Table IVb, read-out: % Control at (ppm) indicated PHY): 0%
inhibition of growth at 0.4 ppm ([2]; .4 ppm, Table IVb, read-out: % Control at (ppm) indicated PHY): 0%
inhibition of growth at 0.8 ppm ([2]; .8 ppm, Table IVb, read-out: % Control at (ppm) indicated PHY): 0%
inhibition of growth at 1.5 ppm (MON; 1.5 ppm): 75%
inhibition of growth at 6 ppm (MON; 6 ppm): 100%
inhibition of growth at 25 ppm (MON; 25 ppm): 100%
inhibition of growth at 0.2 ppm (MON; .2 ppm): 0%
inhibition of growth at 0.4 ppm (MON; .4 ppm): 0%
inhibition of growth at 0.8 ppm (MON; .8 ppm): 0%
inhibition of growth at 1.5 ppm (UST; 1.5 ppm): 100%
inhibition of growth at 3 ppm (UST; 3 ppm): 100%
inhibition of growth at 6 ppm (UST; 6 ppm): 100%
inhibition of growth at 12 ppm (UST; 12 ppm): 100%
inhibition of growth at 25 ppm (UST; 25 ppm): 100%
inhibition of growth at 0.2 ppm (UST; .2 ppm): 0%
inhibition of growth at 0.4 ppm (UST; .4 ppm): 0%
inhibition of growth at 0.8 ppm (UST; .8 ppm): 50%
inhibition of growth at 1.5 ppm (Botrytis cinerea (BOC); 1.5 ppm, Table IVb, read-out: % Control at (ppm) indicated BOC): 0%
inhibition of growth at 6 ppm (Botrytis cinerea (BOC); 6 ppm, Table IVb, read-out: % Control at (ppm) indicated BOC): 0%
inhibition of growth at 25 ppm (Botrytis cinerea (BOC); Table IVa, *=Phytotoxic, read-out: % Control at 25 ppm BOC): 100%
inhibition of growth at 25 ppm (Botrytis cinerea (BOC); Table IVb, read-out: % Control at (ppm) indicated BOC): 100%
inhibition of growth at 0.2 ppm (Botrytis cinerea (BOC); .2 ppm, Table IVb, read-out: % Control at (ppm) indicated BOC): 0%
inhibition of growth at 0.4 ppm (Botrytis cinerea (BOC); .4 ppm, Table IVb, read-out: % Control at (ppm) indicated BOC): 0%
inhibition of growth at 0.8 ppm (Botrytis cinerea (BOC); .8 ppm, Table IVb, read-out: % Control at (ppm) indicated BOC): 0%
inhibition of growth at 1.5 ppm (Pythium ultimum (PYU); 1.5 ppm, Table IVb, read-out: % Control at (ppm) indicated PYU): 100%
inhibition of growth at 6 ppm (Pythium ultimum (PYU); 6 ppm, Table IVb, read-out: % Control at (ppm) indicated PYU): 100%
inhibition of growth at 25 ppm (Pythium ultimum (PYU); Table IVa, read-out: % Control at 25 ppm PYU): 100%
inhibition of growth at 25 ppm (Pythium ultimum (PYU); Table IVb, read-out: % Control at (ppm) indicated PYU): 100%
inhibition of growth at 0.2 ppm (Pythium ultimum (PYU); .2 ppm, Table IVb, read-out: % Control at (ppm) indicated PYU): 0%
inhibition of growth at 0.4 ppm (Pythium ultimum (PYU); .4 ppm, Table IVb, read-out: % Control at (ppm) indicated PYU): 0%
inhibition of growth at 0.8 ppm (Pythium ultimum (PYU); .8 ppm, Table IVb, read-out: % Control at (ppm) indicated PYU): 0%
